Where a name gives a salt, the structure may show the parent alone. Read-outs that look alike come from different tables or passages of the source.
Target: MCH receptor (Homo sapiens, UniProt Q99705)
Test: High throughput functional screening FLIPR/FDSS6000 (intracellular Ca2+ evoked by MCH)
Type: cell-based
Conditions: FLIPR/FDSS, antagonist activity vs 50 nM MCH
Summary of the method: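 For antagonist testing, compound-treated cells (30 min, 37 °C) were stimulated with 50 nM MCH and intracellular Ca2+ followed by Fluo4 fluorescence on FLIPR/FDSS6000. Receptor was a constitutively active, non-endogenous MCH receptor; dye loading 4 μM Fluo4-AM, 1 h, 37 °C.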

[1] = class by percent of control at 10^−7 M or IC50, table after the classification, read-out: class
[2] = class by percent of control at 10^−7 M or IC50, read-out: class

| Compound | IC50 [1] | further results |
| --- | --- | --- |
| COc1cccc(OCC(=O)N[C@H]2CC[C@@H](Nc3cc(C)c4ccccc4n3)CC2)c1 [Example 3098, 2-(3-Methoxy-phenoxy)-N-[cis-4-(4-methyl-quinolin-2-ylamino)-cyclohexyl]-acetamide hydrochloride] | < 50 nM |  |
| CN(C)c1ccnc(N[C@H]2CC[C@@H](NC(=O)c3ccc(-c4ccc(F)cc4)cc3)CC2)n1 [Example 3200, 4′-Fluoro-biphenyl-4-carboxylic acid [cis-4-(4-dimethylamino-pyrimidin-2-ylamino)-cyclohexyl]-amide hydrochloride] | > 200 nM |  |
| Cc1cnc(N[C@H]2CC[C@@H](NC(=O)c3ccc(F)c(F)c3)CC2)nc1N(C)C [Example 3119, N-[cis-4-(4-Dimethylamino-5-methyl-pyrimidin-2-ylamino)-cyclohexyl]-3,4-difluoro-benzamide hydrochloride] | < 50 nM |  |
| Cc1cc(N[C@H]2CC[C@@H](NC(=O)c3cccc(Cl)c3)CC2)nc2ccccc12 [Example 3073, 3-Chloro-N-[cis-4-(4-methyl-quinolin-2-ylamino)-cyclohexyl]-benzamide hydrochloride] | < 50 nM |  |
| Cc1cnc(N[C@H]2CC[C@@H](NC(=O)c3cccnc3S(=O)(=O)c3cccc(C(F)(F)F)c3)CC2)nc1N(C)C [Example 3287, N-(cis-4-{[4-(dimethylamino)-5-methylpyrimidin-2-yl]amino}cyclohexyl)-2-{[3-(trifluoromethyl)phenyl]sulfonyl}-nicotinamide] |  | IC50 [2]: 50 to 200 nM |
| Cc1cc(N[C@H]2CC[C@@H](NC(=O)c3ccc(C#N)cc3)CC2)nc2ccccc12 [Example 3077, 4-Cyano-N-[cis-4-(4-methyl-quinolin-2-ylamino)-cyclohexyl]-benzamide hydrochloride] | < 50 nM |  |
| Cc1cc(C(=O)N[C@H]2CC[C@@H](Nc3nc4c(c(N(C)C)n3)CCCC4)CC2)ccc1F [Example 3109, N-[cis-4-(4-Dimethylamino-5,6,7,8-tetrahydro-quinazolin-2-ylamino)-cyclohexyl]-4-fluoro-3-methyl-benzamide hydrochloride] | < 50 nM |  |
| O=C(COc1ccc(Cl)c(Cl)c1)N[C@H]1CC[C@@H](Nc2ccc3ccccc3n2)CC1 [Example 3065, 2-(3,4-Dichloro-phenoxy)-N-[cis-4-(quinolin-2-ylamino)-cyclohexyl]-acetamide hydrochloride] | < 50 nM |  |
| Cc1cccc(C(=O)N[C@H]2CC[C@@H](Nc3nc(C)cc(N(C)C)n3)CC2)c1 [Example 2526, N-(cis-4-{[4-(Dimethylamino)-6-methylpyrimidin-2-yl]amino}cyclohexyl)-3-methylbenzamide trifluoroacetate] |  | IC50 (representative examples, read-out: IC50): 7.6 nM |
| CNc1cc(N[C@H]2CC[C@@H](CNCc3ccc(Br)cc3OC(F)(F)F)CC2)nc2ccccc12 [Example 3, N^2-{cis-4-[(4-Bromo-2-trifluoromethhxy-benzyl)-amino-methyl]-cyclohexyl}-N^4-methyl-quinoline-2,4-diamine dihydrochloride] | < 50 nM |  |
| Cc1cnc(N[C@H]2CC[C@@H](NC(=O)N(C)C3(c4ccc(Cl)cc4)CC3)CC2)nc1N(C)C [Example 3271, N-[1-(4-chlorophenyl)cyclopropyl]-N′-(cis-4-{[4-(dimethylamino)-5-methylpyrimidin-2-yl]amino}cyclohexyl)-N-methylurea] |  | IC50 [2]: 50 to 200 nM |
| Cc1cnc(N[C@H]2CC[C@@H](NC(=O)Nc3ccc(Cl)cc3)CC2)nc1N(C)C [Example 3333, N-(4-chlorophenyl)-N′-(cis-4-{[4-(dimethylamino)-5-methylpyrimidin-2-yl]amino}cyclohexyl)urea] |  | IC50 [2]: 50 to 200 nM |
| O=C(N[C@H]1CC[C@@H](Nc2ccc3ccccc3n2)CC1)c1cccc(C(F)(F)F)c1 [Example 3050, N-[cis-4-(Quinolin-2-ylamino)-cyclohexyl]-3-trifluoromethyl-benzamide hydrochloride] | < 50 nM |  |
| CN(C)c1nc(N[C@H]2CC[C@@H](NC(=O)c3ccc(F)c(F)c3)CC2)ncc1Cl [Example 3139, N-[cis-4-(5-Chloro-4-dimethylamino-pyrimidin-2-ylamino)-cyclohexyl]-3,4-difluoro-benzamide hydrochloride] | 50 to 200 nM |  |
| Cc1cc(N[C@H]2CC[C@@H](C(=O)N[C@@H](C)c3ccc(Br)cc3)CC2)nc2ccccc12 [Example 3304, cis-N-[(1S)-1-(4-bromophenyl)ethyl]-4-[(4-methylquinolin-2-yl)amino]cyclohexanecarboxamide] |  | IC50 [2]: > 200 nM |
| CN(C)c1ccnc(N[C@H]2CC[C@@H](NCc3ccc(Br)cc3OC(F)(F)F)CC2)n1 [Example 17, N^2-[cis-4-(4-Bromo-2-trifluoromethoxy-benzyl)-amino-cyclohexyl]-N^4,N^4-dimethyl-pyrimidin-2,4-diamine dihydrochloride] | 50 to 200 nM |  |
| Cc1cc(N[C@H]2CC[C@@H](NC(=O)c3cccc(C(F)(F)F)c3)CC2)nc2ccccc12 [Example 3088, N-[cis-4-(4-Methyl-quinolin-2-ylamino)-cyclohexyl]-3-trifluoromethyl-benzamide hydrochloride] | < 50 nM |  |

| Compound | IC50 [1] | further results |
| --- | --- | --- |
| Cc1cnc(N[C@H]2CC[C@@H](NC(=O)c3cccnc3S(=O)(=O)c3ccc(Cl)cc3)CC2)nc1N(C)C [Example 3282, 2-[(4-chlorophenyl)sulfonyl]-N-(cis-4-{[4-(dimethylamino)-5-methylpyrimidin-2-yl]amino}cyclohexyl)nicotinamide] |  | IC50 [2]: < 50 nM |
| Cc1cnc(N[C@H]2CC[C@@H](NC(=O)c3ccc(F)c(Cl)c3)CC2)nc1N [Example 3392, N-[cis-4-(4-Amino-5-methyl-pyrimidin-2-ylamino)-cyclohexyl]-3-chloro-4-fluoro-benzamide hydrochloride] | > 200 nM |  |
| O=C(N[C@H]1CC[C@@H](Nc2ccc3ccccc3n2)CC1)c1cc(F)cc(F)c1 [Example 3152, 3,5-Difluoro-N-[cis-4-(quinolin-2-ylamino)-cyclohexyl]-benzamide hydrochloride] | < 50 nM |  |
| Cc1cc(N[C@H]2CC[C@@H](NC(=O)c3cncc(Br)c3)CC2)nc2ccccc12 [Example 3185, 5-Bromo-N-[cis-4-(4-methyl-quinolin-2-ylamino)-cyclohexyl]-nicotinamide dihydrochloride] | < 50 nM |  |
| Cc1ccc(Oc2ncccc2C(=O)N[C@H]2CC[C@@H](Nc3ccc4ccccc4n3)CC2)cc1 [Example 3056, N-[cis-4-(Quinolin-2-ylamino)-cyclohexyl]-2-p-tolyloxy-nicotinamide hydrochloride] | < 50 nM |  |
| CN(C)c1ccnc(N[C@H]2CC[C@@H](NCCc3ccc(Br)cc3OC(F)(F)F)CC2)n1 [Example 18, N^2-{cis-4-[2-(4-Bromo-2-trifluoromethoxy-phenyl)-ethylamino]-cyclohexyl}-N^4,N^4-dimethyl-pyrimidine-2,4-diamine dihydrochloride] | < 50 nM |  |
| Cc1cc(N[C@H]2CC[C@@H](NC(=O)c3cc(Cl)ccn3)CC2)nc2ccccc12 [Example 3184, 4-Chloro-pyridine-2-carboxylic acid [cis-4-(4-methyl-quinolin-2-ylamino)-cyclohexyl]-amide hydrochloride] | 50 to 200 nM |  |
| Cc1cnc(N[C@H]2CC[C@@H](NC(=O)[C@@H]3C[C@H]3c3ccc(F)c(F)c3)CC2)nc1N(C)C (relative stereo) [Example 3318, trans-2-(3,4-difluorophenyl)-N-(cis-4-{[4-(dimethylamino)-5-methylpyrimidin-2-yl]amino}cyclohexyl)-cyclopropanecarboxamide] |  | IC50 [2]: < 50 nM |
| Cc1cc(N[C@H]2CC[C@@H](NC(=O)COc3ccc(F)c(Cl)c3)CC2)nc2ccccc12 [Example 3100, 2-(3-Chloro-4-fluoro-phenoxy)-N-[cis-4-(4-methyl-quinolin-2-ylamino)-cyclohexyl]-acetamide hydrochloride] | < 50 nM |  |
| Cc1cnc(N[C@H]2CC[C@@H](NC(=O)[C@@H]3C[C@H]3c3ccc(Cl)c(Cl)c3)CC2)nc1N(C)C (relative stereo) [Example 3319, trans-2-(3,4-dichlorophenyl)-N-(cis-4-{[4-(dimethylamino)-5-methylpyrimidin-2-yl]amino}cyclohexyl)-cyclopropanecarboxamide] |  | IC50 [2]: < 50 nM |
| Cc1cccc(Oc2ncccc2C(=O)N[C@H]2CC[C@@H](Nc3cc(C)c4ccccc4n3)CC2)c1 [Example 3097, N-[cis-4-(4-Methylquinolin-2-ylamino)-cyclohexyl]-2-m-tolyloxy-nicotinamide hydrochloride] | < 50 nM |  |
| Cc1cc(N[C@H]2CC[C@@H](NC(=O)c3ccccn3)CC2)nc2ccccc12 [Example 3181, Pyridine-2-carboxylic acid [cis-4-(4-methyl-quinolin-2-ylamino)-cyclohexyl]-amide hydrochloride] | 50 to 200 nM |  |
| CN(C)N(c1ncc(Cl)cn1)[C@H]1CC[C@@H](NC(=O)c2cccnc2Oc2ccccc2)CC1 [Example 3137, N-[cis-4-(5-Chloro-dimethylamino-pyrimidin-2-ylamino)-cyclohexyl]-2-phenoxy-nicotinamide hydrochloride] | 50 to 200 nM |  |
| Cc1cnc(N[C@H]2CC[C@@H](NC(=O)c3cccnc3S(=O)(=O)c3cccc(Cl)c3)CC2)nc1N(C)C [Example 3283, 2-[(3-chlorophenyl)sulfonyl]-N-(cis-4-{[4-(dimethylamino)-5-methylpyrimidin-2-yl]amino}cyclohexyl)nicotinamide] |  | IC50 [2]: 50 to 200 nM |
| Cc1cc(N[C@H]2CC[C@@H](NC(=O)c3cncc(Cl)c3)CC2)nc2ccccc12 [Example 3396, 5-Chloro-N-[cis-4-(4-methyl-quinolin-2-ylamino)-cyclohexyl]-nicotinamide] | < 50 nM |  |
| Cc1cnc(N[C@H]2CC[C@@H](NC(=O)NCc3ccccc3)CC2)nc1N(C)C [Example 3341, N-benzyl-N′-(cis-4-{[4-(dimethylamino)-5-methylpyrimidin-2-yl]amino}cyclohexyl)urea] |  | IC50 [2]: 50 to 200 nM |

Source: patent US20050197350A1, “Novel quinoline, tetrahydroquinazoline, and pyrimidine derivatives and methods of treatment related to the use thereof” (TAISHO PHARMACEUTICAL CO., LTD., priority 2003, published 2005)
